This assay has as its target Ubiquitin carboxyl-terminal hydrolase 30 (Homo sapiens) (UniProt Q70CQ3). In words: ubiquitin-specific protease 30 DUB inhibitors, concentration-effect, biochemical, validation of primary actives (AID 1645865). The conditions noted are these: purified USP30, Ub-rhodamine cleavage, fluorescence, 2 h.

This passage reports IC50 results from PubChem BioAssay AID1645865 (Buhrlage Lab, Dana-Farber Cancer Institute and Novartis …, 2021).

Active and inactive are the calls of the source.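 Rule for the calls: active = maximal inhibition of the USP30 enzyme reaching 30% or more across the dose series; inactive = the rest.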

Chain of Ubiquitin carboxyl-terminal hydrolase 30 (Homo sapiens) (Q70CQ3 whole entry, looked up): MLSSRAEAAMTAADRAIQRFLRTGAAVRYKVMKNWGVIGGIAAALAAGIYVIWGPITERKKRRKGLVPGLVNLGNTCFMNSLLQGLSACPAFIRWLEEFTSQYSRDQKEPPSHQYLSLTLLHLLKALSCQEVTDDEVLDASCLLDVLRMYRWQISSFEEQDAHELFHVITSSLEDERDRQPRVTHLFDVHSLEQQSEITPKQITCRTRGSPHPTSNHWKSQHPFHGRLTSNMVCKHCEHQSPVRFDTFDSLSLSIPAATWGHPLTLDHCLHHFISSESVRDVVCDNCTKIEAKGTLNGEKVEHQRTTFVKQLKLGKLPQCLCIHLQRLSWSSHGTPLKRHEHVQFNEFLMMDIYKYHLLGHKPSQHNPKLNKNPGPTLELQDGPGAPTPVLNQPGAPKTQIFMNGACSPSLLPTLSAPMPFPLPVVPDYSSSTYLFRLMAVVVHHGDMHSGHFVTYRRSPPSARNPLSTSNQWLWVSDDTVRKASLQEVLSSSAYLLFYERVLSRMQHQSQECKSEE

Usually IC50 stands for the point on the concentration scale where inhibition reaches its midpoint. For the molecule `CCc1ccc(Nc2cc(C(=O)NCCCOC(C)C)c3ccccc3n2)cc1`, the half-inhibitory concentration (IC50) was 8.88 µM.

As to `Cn1cc(-c2cnc(-c3cccc(F)c3)nc2)cc1C(=O)NCc1cccnc1`, the IC50 was 30.7 µM.

As to `O=c1ccc(-c2noc(Cc3c(F)cccc3Cl)n2)c[nH]1`, the IC50 was > 50 µM (inactive).

In the case of `O=C(Cn1c(NCc2ccccc2)nc2ccccc21)NCC(F)(F)F`, the concentration for half-maximal inhibition (IC50) was 33.1 µM.

Regarding `CC1=C(C(=O)Nc2ccccc2C)C(c2ccc(OCc3ccccc3F)cc2)n2ncnc2N1` (centres undefined), the IC50 is 30.6 µM.

For `COc1ccc(CCC(=O)Nc2ccc3c(c2)Sc2ncccc2C(=O)N3C)cc1`, the IC50 was > 50 µM (inactive).

Consider `O=C(NCCc1ccccn1)c1cc(-c2ccc(Br)cc2)n[nH]1`, for which the 50% inhibitory concentration (IC50) was 16.4 µM.

Regarding `Oc1cc(OCc2cccc(C(F)(F)F)c2)ccc1-c1ccn[nH]1`, the IC50 is 37.3 µM.

Regarding `Cc1ccc(C)c(S(=O)(=O)N2CCN(c3ccc4nnc(-c5ccco5)n4n3)CC2)c1`, the IC50 was > 50 µM (inactive).

In the case of `O=c1cc(CNc2ccc(Br)cc2)nc2nc(-c3ccccc3)[nH]n12`, the IC50 was > 50 µM (inactive).

Consider `Cc1ccc(C(=O)Nc2ccc(S(=O)(=O)N3CCCC3)cc2)cc1Br`, for which the IC50 was > 50 µM (inactive).

As for `O=C(Cc1ccccc1F)N1CCC2(CC1)CC1(CO2)Nc2ccccc2-n2cccc21` (centres undefined), the IC50 is > 50 µM (inactive).

`COc1ccc(C2CC(c3ccc(C)cc3)N(C(=O)C3CC3)c3ncnn32)cc1` (centres undefined): the IC50 is > 50 µM (inactive).

For `O=C(Nc1cc(-c2cccnc2)no1)c1ccc(F)c(F)c1`, the IC50 was 20 µM.

As to `O=C(O)Cc1ccc(Nc2nc3ccccc3n3nnnc23)cc1`, the IC50 was > 50 µM (inactive).

With `CC(C)c1ccc(NC(=O)COC(=O)c2ccc3[nH]c4c(c3c2)CCCC4)cc1`, the IC50 was 34.1 µM.

In the case of `CC1CCN(c2nc(F)c3c(c2F)S(=O)(=O)CCN3Cc2cccnc2)CC1`, the IC50 was > 50 µM (inactive).

In the case of `C=Cc1ccc(Cn2cc(S(=O)(=O)N3CCOCC3)ccc2=O)cc1`, the IC50 was 28.1 µM.

Turning to `CC1Oc2cc3c(-c4c(O)cc(O)c5c(O)c6c(cc45)OC(C)C(C)C6=O)c(O)cc(O)c3c(O)c2C(=O)C1C` (centres undefined), the IC50 is 4.98 µM.

For `N=C1C(c2nc3ccccc3s2)=C(O)CN1Cc1ccc(F)cc1`, the IC50 was > 50 µM (inactive).

Take `Cn1c(=O)c2cc(C(=O)Nc3ccc(F)cc3)cnc2n(C)c1=O`: the IC50 is 25.8 µM.

As to `O=S(=O)(Cc1nnc(-c2ccccc2C(F)(F)F)o1)c1ccc(Cl)cc1`, the IC50 is > 50 µM (inactive).

For `CCOc1ccccc1NC(=O)COc1cc(OC)ccc1C(=O)c1ccccc1`, the IC50 was > 50 µM (inactive).

As to `O=C(CCCCn1c(=O)c2ccccc2n(CC(=O)Nc2ccc(F)c(Cl)c2)c1=O)NCc1ccco1`, the IC50 was > 50 µM (inactive).

For `CC(C(=O)Nc1ccccc1)n1cnc2nc(N3CCCCC3)ncc2c1=O` (centres undefined), the IC50 was > 50 µM (inactive).

For `Cc1ccc(Cc2nc(-c3ccc(=O)[nH]c3)no2)cc1`, the IC50 is > 50 µM (inactive).

As for `COc1cc(NC(=O)Cn2c(=O)n(-c3ccc(CC(=O)NC4CCCC4)cc3)c(=O)c3ccccc32)cc(OC)c1`, the IC50 is > 50 µM (inactive).

As for `Cc1ccc(C(=O)NCC(=O)Nc2nc3ccccc3[nH]2)c(C)c1`, the IC50 was 39.6 µM.

Regarding `O=C(Cn1c(=O)n(Cc2ccc3c(c2)OCO3)c(=O)c2ncccc21)c1ccc(Cl)cc1`, the IC50 was 32.1 µM.

Consider `Cc1ccc(-c2nc(NC(=O)COc3ccc(Cl)cc3)no2)cc1`, for which the IC50 was 1.35 µM.

On to `c1ccc(CCN2CCc3nc4cccnc4cc3C2)nc1`, for which the IC50 is > 50 µM (inactive).

Consider `CC(C)(C)c1cc(CCC(=O)Nc2c3c(nc4c2CCC4)CCCC3)cc(C(C)(C)C)c1O`, for which the IC50 was > 50 µM (inactive).

In the case of `CCc1nc2cc(NC(=O)c3cccc(N4CCCC4=O)c3)ccc2n1C`, the IC50 was > 50 µM (inactive).

For `CCc1ccc2[nH]c(=O)c(CN(CCc3ccc(OC)c(OC)c3)C(=O)Nc3ccccc3)cc2c1`, the IC50 was > 50 µM (inactive).

`COc1ccc(OCC(=O)Nc2ccc(C)c(OCc3cc(=O)n4ccccc4n3)c2)cc1`: the IC50 is 4.77 µM.

`Cc1nc(-c2ccc(NC(=O)N3CCN(c4ccccn4)CC3)cc2)no1`: the IC50 is > 50 µM (inactive).

Consider `Clc1cc2nc(N3CCN(c4ccccn4)CC3)c3nncn3c2cc1Cl`, for which the IC50 was 2.16 µM.

On to `COc1cccc2sc(N3CCN(c4nc5ccccc5s4)CC3)nc12`, for which the IC50 is 39.3 µM.

With `C[C@@]12c3ccc4c(c3C(=O)c3occ(c31)C(O)C[C@H]2O)CCC4=O` (some centres undefined), the IC50 was > 50 µM (inactive).

`CC(C)Cc1nc2oc3c(N(C)CCO)ncnc3c2c2c1CCC2`: the IC50 was > 50 µM (inactive).

Turning to `Cc1nc(N2CCCC2)ncc1-c1cc(=O)[nH]c(N2CCc3ccccc3C2)n1`, the IC50 was 24.4 µM.

For `C=C(NC(=O)C(=C)NC(=O)c1csc(C2=N[C@@H]3c4csc(n4)[C@H]4NC(=O)c5csc(n5)[C@H]([C@](C)(O)[C@@H](C)O)NC(=O)C5CSC(=N5)/C(=C/C)NC(=O)C([C@@H](C)O)NC(=O)c5csc(n5)[C@]3(CC2)NC(=O)[C@H](C)NC(=O)C(=C)NC(=O)[C@H](C)NC(=O)C([C@@H](C)CC)NC2C=Cc3c(C(C)O)cc(nc3[C@H]2O)C(=O)OC4C)n1)C(N)=O` (some centres undefined), the IC50 is > 50 µM (inactive).

For the molecule `Cc1ccc(NC(=O)c2ccc3nn(CC(=O)Nc4ccc(F)cc4F)c(=O)n3c2)cc1`, the IC50 was 2.43 µM.

Regarding `Cc1ccc(-c2c(C(=O)Nc3ccc(S(N)(=O)=O)cc3)oc(=O)c3ccccc23)cc1`, the half-maximal inhibitory concentration (IC50) is 29.2 µM.

Take `Fc1cnc(N2CC[C@H]3CO[C@H](CNc4ncccn4)[C@H]3C2)nc1`: the IC50 is > 50 µM (inactive).

For the molecule `CCOc1ccc(NC(=O)COc2cccc(-n3cnnn3)c2)cc1`, the IC50 is > 50 µM (inactive).

In the case of `COc1ccc(-c2cc3nc([C@@H](C)NC(=O)c4ccc5c(c4)OCO5)nn3cn2)cc1`, the IC50 was > 50 µM (inactive).

As to `O=C(c1ccc2ncccc2c1)N1CCC2(C1)Nc1cccnc1NC2=NC1CCCC1` (centres undefined), the IC50 was > 50 µM (inactive).

Consider `COc1ccc(OC)c(NC(=O)CNC(=O)c2cc3c(OC)cccc3[nH]2)c1`, for which the IC50 is > 50 µM (inactive).

Take `Cc1ccc(-c2ccc(N3CCOCC3)nn2)cc1S(=O)(=O)N1CCOCC1`: the IC50 is > 50 µM (inactive).

As to `CN(C)c1ccc(C2CC(c3c(O)n(C)c(=O)[nH]c3=O)=Nc3ccccc3S2)cc1` (centres undefined), the IC50 was 1.92 µM.

On to `CC(=O)Nc1cccc(NC(=O)COc2cccc3ccc(N4CCCC4)nc23)c1`, for which the IC50 is > 50 µM (inactive).

In the case of `COc1ccc(NS(=O)(=O)c2cc(NC(=O)CCc3nc4ccccc4s3)ccc2C)cc1`, the 50% inhibitory concentration (IC50) was 26.2 µM.

With `Cc1cccc(NC(=O)c2ccn(COc3ccc(F)cc3F)n2)c1C`, the IC50 is > 50 µM (inactive).

Consider `Cc1ccc2[nH]c(=O)c(CN(CC3COCCO3)S(=O)(=O)c3ccc(F)cc3)cc2c1` (centres undefined), for which the half-inhibitory concentration (IC50) is 8.96 µM.

In the case of `O=C(CN1C=NC2=NS(=O)(=O)c3ccccc3N21)Nc1cc(F)ccc1F`, the IC50 was 36.6 µM.

In the case of `Nc1nc(-c2ccc[nH]2)cs1`, the IC50 was > 50 µM (inactive).

On to `CN(C)Cc1ccc(C(=O)Nc2ccc(-c3nccs3)cc2)cc1`, for which the IC50 is > 50 µM (inactive).

For `Cc1cc2nc(Oc3cccc(Cl)c3)c3ccccc3n2n1`, the IC50 is 2.04 µM.

In the case of `CC(c1ccccc1)c1nc(-c2ccc(=O)[nH]c2)no1` (centres undefined), the IC50 is > 50 µM (inactive).

On to `O=S1(=O)CCN(Cc2c(F)cccc2F)c2c(F)nc(N3CCOCC3)c(F)c21`, for which the IC50 was > 50 µM (inactive).

As to `Cc1cc(NC(=O)Cn2c(=O)n(CCCCC(=O)NCc3ccco3)c(=O)c3ccccc32)ccc1Br`, the IC50 was 2.09 µM.

On to `CCCCCC(=O)N1c2ccccc2NC2=C(C(=O)CC(c3ccc(C(C)(C)C)cc3)C2)C1c1ccncc1` (centres undefined), for which the IC50 was 2.28 µM.

Consider `COc1ccc(-n2nnc(C(=O)Nc3ccccc3)c2N)cc1`, for which the IC50 is > 50 µM (inactive).

As for `O=[N+]([O-])c1ccc(NCc2ccc(-c3cccs3)s2)nc1`, the IC50 is 39.1 µM.

For the molecule `CC1CCN(c2cc(-n3cnc(C(=O)N4CCCC(C)C4)c3)ncn2)CC1` (centres undefined), the IC50 is > 50 µM (inactive).

Take `CC(C)NC(=O)CN1C(=O)CC(C)Sc2ccc(S(=O)(=O)N3CCCCC3)cc21` (centres undefined): the IC50 is 27.1 µM.

For `N#C/C(=C\c1ccc(OCc2cccc(C(=O)O)c2)cc1)c1ccc(F)cc1`, the IC50 was > 50 µM (inactive).

For `O=C(CCc1c[nH]c2ccccc12)Nc1ccc(N2CCOCC2)cc1`, the IC50 is 25.1 µM.

For `CCCCN1CC(C(=O)Nc2ccc(C(=O)Nc3ccc(F)c(Cl)c3)cc2)CC1=O` (centres undefined), the IC50 is 47.5 µM.

With `COc1ccc(C(=O)Nc2ccc3c(c2)C(=O)N(C)c2ccccc2O3)cc1`, the IC50 was > 50 µM (inactive).

For `CCC(=O)Nc1ccc2c(c1)nc(CSc1nccc(C)n1)n2CC`, the IC50 was > 50 µM (inactive).

Take `O=C(COc1cccc(C(=O)NCc2ccccc2)c1)Nc1ccc(Oc2ccccc2)cc1`: the IC50 was > 50 µM (inactive).

For the molecule `O=C1NC(=O)/C(=C/c2ccc(OC(=O)c3ccc(Cl)cc3Cl)cc2)N1`, the IC50 is 2.41 µM.

`Cc1ccc(C(=O)c2cn(CC(=O)Nc3ccccc3)c3ccc(C)cc3c2=O)cc1`: the IC50 is 4.45 µM.

Consider `COc1ccc(-c2[nH]c3ccccc3c2SCCNC(=O)c2ccc(S(=O)(=O)N3CCOCC3)cc2)cc1`, for which the IC50 is 28.7 µM.

In the case of `CC(=O)c1ccccc1NC(=O)COc1ccc(-c2ccc(C#N)cc2)cc1`, the IC50 is 2.51 µM.

In the case of `COc1ccccc1OCc1ccc(C(=O)Nc2ccc(F)cc2C)cc1`, the IC50 is 28.3 µM.

For `Cc1ccc(NC(=O)/C=C/c2cccc(C(F)(F)F)c2)c(O)c1`, the 50% inhibitory concentration (IC50) is 5.24 µM.

As to `COC(=O)c1cc(C#N)c(NCc2ccccc2)nc1C`, the IC50 is 10.1 µM.

`CCOC(=O)c1cnn(-c2ccc(C(=O)Nc3ccc(C)c(Cl)c3)cc2)c1N`: the IC50 was 2.17 µM.

For `Cc1nc(-c2cccc(NC(=O)c3ccccc3Cl)c2)no1`, the IC50 is > 50 µM (inactive).

In the case of `O=C1C/C(=C\c2cccc(Cl)c2)Cc2ccccc21`, the IC50 was > 50 µM (inactive).

On to `CC(=O)N1CCc2cc(S(=O)(=O)NC(Cc3ccccc3)C(=O)Nc3cccc(Cl)c3C)ccc21` (centres undefined), for which the IC50 was 3.47 µM.
